Source: ChEMBL document CHEMBL1201862, “PubChem BioAssay data set” (2004)
Active and inactive are the calls of the source. Square brackets hold non-standard residues; d marks the D form. Peptide text beside a SMILES is read from it. * marks the point of attachment. ξ: configuration not given here. Cbz = O=C(OCc1ccccc1)*; OBn = c1ccc(CO*)cc1; ξP = O=C(O)C1CCCN1

Tests used:
Cytochrome P450 2C19 = Cytochrome P450 2C19 (Homo sapiens, UniProt P33261); test: Cytochrome panel assay with activity outcomes. Panel member name: p450-cyp2c19 Compounds with AC50 equal or less than 10 uM are considered active; format: functional
Cytochrome P450 3A4 = Cytochrome P450 3A4 (Homo sapiens, UniProt P08684);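 further: CYP3A4 tested as one member of a cytochrome P450 panel screen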
[1] = biological target: T1, Zinc finger protein mex-5 (Caenorhabditis elegans, UniProt Q9XUB2); test: MEX-5/TCR-2 RNA interaction inhibitors, dose response, biochemical, C. elegans, fluorescence polarization (AID 1960)
T1 sequence (Q9XUB2 whole entry): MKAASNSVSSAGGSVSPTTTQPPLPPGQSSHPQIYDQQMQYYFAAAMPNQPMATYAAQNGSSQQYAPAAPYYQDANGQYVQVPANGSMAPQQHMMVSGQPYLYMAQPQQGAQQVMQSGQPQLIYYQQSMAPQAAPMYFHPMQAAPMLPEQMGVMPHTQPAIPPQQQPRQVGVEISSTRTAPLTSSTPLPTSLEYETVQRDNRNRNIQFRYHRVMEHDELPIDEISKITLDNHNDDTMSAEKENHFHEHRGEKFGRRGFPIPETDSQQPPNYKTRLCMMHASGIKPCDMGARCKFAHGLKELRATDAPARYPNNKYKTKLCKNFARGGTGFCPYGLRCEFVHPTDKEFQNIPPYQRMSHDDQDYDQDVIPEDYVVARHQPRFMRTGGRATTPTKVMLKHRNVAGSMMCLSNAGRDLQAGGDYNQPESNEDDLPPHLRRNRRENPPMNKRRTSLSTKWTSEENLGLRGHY

[2] = biological target: T2, RNA-binding protein pos-1 (Caenorhabditis elegans, UniProt G5EF15); test: inhibitors of POS-1/mex-3 RNA binding, dose response, biochemical, fluorescence polarization (AID 1964);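 further: purified POS-1 fused to maltose binding protein made in E. coli; potency of compounds blocking POS-1 binding to fluorescent RNA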
T2 sequence (G5EF15 whole entry): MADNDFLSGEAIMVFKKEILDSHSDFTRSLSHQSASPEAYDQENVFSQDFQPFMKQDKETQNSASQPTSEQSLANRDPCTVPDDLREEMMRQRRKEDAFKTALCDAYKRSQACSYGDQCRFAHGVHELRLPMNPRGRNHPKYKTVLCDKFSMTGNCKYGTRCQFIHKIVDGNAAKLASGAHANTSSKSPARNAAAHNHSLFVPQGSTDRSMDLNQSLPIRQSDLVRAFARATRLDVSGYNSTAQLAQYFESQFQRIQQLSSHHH

Cytochrome P450 2D6 = Cytochrome P450 2D6 (Homo sapiens, UniProt P10635);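 further: CYP2D6 member of a cytochrome P450 panel assay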
Cytochrome P450 1A2 = biological target: T3, Cytochrome P450 1A2 (Homo sapiens, UniProt P05177);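 further: PubChem cytochrome P450 panel assay, CYP1A2 panel member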
T3 sequence (P05177 whole entry): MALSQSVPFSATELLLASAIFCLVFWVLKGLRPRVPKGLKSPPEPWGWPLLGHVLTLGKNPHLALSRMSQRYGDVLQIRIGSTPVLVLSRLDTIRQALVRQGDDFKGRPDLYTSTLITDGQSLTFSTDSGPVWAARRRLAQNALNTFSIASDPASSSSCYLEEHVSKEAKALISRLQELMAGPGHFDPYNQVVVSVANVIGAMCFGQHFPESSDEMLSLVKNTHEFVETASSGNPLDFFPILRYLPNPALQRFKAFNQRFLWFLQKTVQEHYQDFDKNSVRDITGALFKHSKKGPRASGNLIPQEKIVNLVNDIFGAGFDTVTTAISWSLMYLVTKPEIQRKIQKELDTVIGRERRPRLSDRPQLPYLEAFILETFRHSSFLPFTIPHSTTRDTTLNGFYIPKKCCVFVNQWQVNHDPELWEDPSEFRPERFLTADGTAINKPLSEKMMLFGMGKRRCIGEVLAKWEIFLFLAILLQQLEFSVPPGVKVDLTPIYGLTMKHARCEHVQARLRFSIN

Cytochrome P450 2C9 = Cytochrome P450 2C9 (Homo sapiens, UniProt P11712)
Protein RecA = biological target: T4, Protein RecA (Mycobacterium tuberculosis, UniProt P9WHJ3); test: Fluorescence Cell-Free Homogeneous Dose Retest to Identify Inhibitors of RecA-Intein Splicing Activity. [Related pubchem assays (depositor defined):AID2097, AID2223, AID489010, AID492950]; format: functional
T4 sequence (P9WHJ3 whole entry): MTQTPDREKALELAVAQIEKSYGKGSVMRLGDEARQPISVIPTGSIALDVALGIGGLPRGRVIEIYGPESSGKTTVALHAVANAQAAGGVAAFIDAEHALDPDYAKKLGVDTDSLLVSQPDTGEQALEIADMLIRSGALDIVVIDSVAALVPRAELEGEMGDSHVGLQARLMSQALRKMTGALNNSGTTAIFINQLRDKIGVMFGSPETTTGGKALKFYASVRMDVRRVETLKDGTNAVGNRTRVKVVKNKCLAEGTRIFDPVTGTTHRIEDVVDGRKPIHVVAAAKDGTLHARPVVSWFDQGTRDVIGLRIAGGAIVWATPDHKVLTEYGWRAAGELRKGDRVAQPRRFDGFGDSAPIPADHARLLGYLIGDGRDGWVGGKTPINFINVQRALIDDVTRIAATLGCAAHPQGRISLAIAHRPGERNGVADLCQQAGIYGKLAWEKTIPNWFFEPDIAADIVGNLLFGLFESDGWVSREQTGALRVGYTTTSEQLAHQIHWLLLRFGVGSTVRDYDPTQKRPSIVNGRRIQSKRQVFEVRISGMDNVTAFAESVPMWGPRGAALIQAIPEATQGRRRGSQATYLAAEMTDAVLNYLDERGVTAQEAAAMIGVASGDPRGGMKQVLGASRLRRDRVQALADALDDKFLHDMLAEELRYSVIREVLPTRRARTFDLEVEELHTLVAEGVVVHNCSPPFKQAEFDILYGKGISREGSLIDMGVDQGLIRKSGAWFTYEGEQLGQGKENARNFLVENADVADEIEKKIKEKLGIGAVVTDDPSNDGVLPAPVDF

Chain of Cytochrome P450 3A4 (P08684 whole entry): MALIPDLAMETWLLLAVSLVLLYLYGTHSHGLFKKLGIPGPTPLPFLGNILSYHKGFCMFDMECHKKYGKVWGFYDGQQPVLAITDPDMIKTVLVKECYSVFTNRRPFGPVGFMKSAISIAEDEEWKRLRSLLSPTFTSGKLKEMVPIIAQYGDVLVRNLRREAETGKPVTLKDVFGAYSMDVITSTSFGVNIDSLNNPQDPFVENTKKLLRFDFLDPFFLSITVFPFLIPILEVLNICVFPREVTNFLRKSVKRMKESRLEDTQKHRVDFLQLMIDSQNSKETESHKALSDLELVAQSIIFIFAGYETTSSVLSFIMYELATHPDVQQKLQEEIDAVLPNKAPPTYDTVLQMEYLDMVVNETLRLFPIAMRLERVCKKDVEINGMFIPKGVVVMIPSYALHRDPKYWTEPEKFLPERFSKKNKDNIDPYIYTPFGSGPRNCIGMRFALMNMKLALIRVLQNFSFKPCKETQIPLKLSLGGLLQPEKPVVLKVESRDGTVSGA
Chain of Cytochrome P450 2C19 (P33261 whole entry): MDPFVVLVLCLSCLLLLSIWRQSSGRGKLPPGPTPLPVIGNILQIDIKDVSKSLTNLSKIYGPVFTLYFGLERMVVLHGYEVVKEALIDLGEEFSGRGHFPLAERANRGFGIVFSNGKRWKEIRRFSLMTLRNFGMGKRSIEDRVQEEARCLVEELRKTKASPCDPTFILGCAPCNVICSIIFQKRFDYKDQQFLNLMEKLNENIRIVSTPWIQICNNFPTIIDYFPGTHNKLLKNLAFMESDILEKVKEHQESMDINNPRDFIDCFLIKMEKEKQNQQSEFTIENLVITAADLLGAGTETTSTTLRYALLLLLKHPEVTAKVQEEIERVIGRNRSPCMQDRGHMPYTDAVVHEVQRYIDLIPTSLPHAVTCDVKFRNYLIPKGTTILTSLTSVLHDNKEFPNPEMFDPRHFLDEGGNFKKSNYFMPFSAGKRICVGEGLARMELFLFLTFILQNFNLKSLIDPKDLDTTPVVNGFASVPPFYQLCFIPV
Chain of Cytochrome P450 2D6 (P10635 whole entry): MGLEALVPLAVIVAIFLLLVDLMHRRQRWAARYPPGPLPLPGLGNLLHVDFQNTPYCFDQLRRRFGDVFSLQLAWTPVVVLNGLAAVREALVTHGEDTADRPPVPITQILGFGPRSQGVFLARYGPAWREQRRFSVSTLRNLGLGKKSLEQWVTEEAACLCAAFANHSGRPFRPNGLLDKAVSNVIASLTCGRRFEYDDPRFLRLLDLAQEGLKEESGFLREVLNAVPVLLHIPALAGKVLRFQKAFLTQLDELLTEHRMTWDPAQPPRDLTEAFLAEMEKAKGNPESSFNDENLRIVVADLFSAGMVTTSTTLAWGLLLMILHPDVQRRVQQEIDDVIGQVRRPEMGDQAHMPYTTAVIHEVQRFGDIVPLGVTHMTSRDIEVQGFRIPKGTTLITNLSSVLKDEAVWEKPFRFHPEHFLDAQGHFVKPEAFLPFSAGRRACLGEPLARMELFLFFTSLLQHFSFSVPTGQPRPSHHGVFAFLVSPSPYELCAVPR
Chain of Cytochrome P450 2C9 (P11712 whole entry): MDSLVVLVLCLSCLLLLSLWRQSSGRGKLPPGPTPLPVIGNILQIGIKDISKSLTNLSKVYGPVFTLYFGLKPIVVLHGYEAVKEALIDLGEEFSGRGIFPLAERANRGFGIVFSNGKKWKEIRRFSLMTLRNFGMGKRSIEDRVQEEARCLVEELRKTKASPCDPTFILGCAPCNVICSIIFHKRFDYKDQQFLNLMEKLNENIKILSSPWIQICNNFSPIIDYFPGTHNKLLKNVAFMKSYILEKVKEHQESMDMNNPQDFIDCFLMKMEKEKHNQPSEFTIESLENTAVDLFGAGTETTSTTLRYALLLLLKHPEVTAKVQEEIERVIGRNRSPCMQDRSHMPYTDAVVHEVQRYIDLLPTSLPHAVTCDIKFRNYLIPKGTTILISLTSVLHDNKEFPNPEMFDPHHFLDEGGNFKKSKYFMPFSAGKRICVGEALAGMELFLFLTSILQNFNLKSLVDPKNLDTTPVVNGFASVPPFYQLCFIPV

Structure (SMILES): O=C(CNC(=O)OCc1ccccc1)NCC(=O)N1CCCC1C(=O)OCc1ccccc1 (stereo not drawn) (Cbz-Gly-Gly-[ξP]-OBn)
- AC50 (Cytochrome P450 2C19; read-out: AC50): 0.0355 µM (inconclusive)
- AC50 (Cytochrome P450 3A4): 17.8 µM (inconclusive)

Structure (SMILES): Cc1ccccc1N=Nc1c(O)n(C)c2ccccc12
- EC50 [1]: > 300 µM (not active)
- EC50 [2]: > 300 µM (not active)

Structure (SMILES): c1ccc(N2CCCC3(CCNCC3)C2)cc1
- AC50 (Cytochrome P450 2C19; read-out: AC50): 15.8 µM (inconclusive)
- AC50 (Cytochrome P450 3A4): 25.1 µM (inconclusive)

Structure (SMILES): Cc1noc(C)c1C(=O)N1CCC2(CC1)CCN(C(c1ccccc1)c1ccccc1)CC2
- AC50 (Cytochrome P450 2D6): 25.1 µM (inconclusive)

Structure (SMILES): Cc1nc(-c2cccc(NC(=O)c3cc4cc(Br)ccc4oc3=O)c2)cs1
- AC50 (Cytochrome P450 2C19; read-out: AC50): 20 µM (inconclusive)
- AC50 (Cytochrome P450 3A4): 10 µM (inconclusive)
- AC50 (Cytochrome P450 1A2): 8.91 µM (inconclusive)

Structure (SMILES): O=C(Nc1ccccc1)C(Cc1ccccc1)NC(=O)C12CC3CC(CC(C3)C1)C2 (configuration not stated)
- AC50 (Cytochrome P450 2D6): 0.00794 µM (inconclusive)

Structure (SMILES): COc1ccccc1CNc1ncnc2ccc(-c3cccc(NS(C)(=O)=O)c3)cc12
- AC50 (Cytochrome P450 2C9): 0.794 µM (inconclusive)
- AC50 (Cytochrome P450 2D6): 20 µM (inconclusive)

Structure (SMILES): CC(C)CS(=O)(=O)C1=NN2C(=N)/C(=C\c3ccc(OC(=O)c4ccco4)cc3)C(=O)N=C2S1
- EC50 (Protein RecA): 14.4 µM (active)

Structure (SMILES): COc1ccc2[nH]c(SCC(=O)Nc3nonc3C)nc2c1
- EC50 [1]: 20.7 µM (inconclusive)
- EC50 [2]: 18.4 µM (active)

Structure (SMILES): O=C1[C@H]2[C@H]3[C@H](O)[C@H](O)C/C(=N/OCc4ccccc4)[C@@H]3CC[C@@H]2C(=O)N1Cc1ccc2c(c1)OCO2
- AC50 (Cytochrome P450 2C19; read-out: AC50): 3.98 µM (inconclusive)

Structure (SMILES): O=C(NNS(=O)(=O)c1ccc(Cl)cc1)NC1CCCCC1
- AC50 (Cytochrome P450 2C19; read-out: AC50): 10 µM (inconclusive)
- AC50 (Cytochrome P450 2C9): 17.8 µM (inconclusive)

Structure (SMILES): O=C(Nc1ccccc1)N1CCCC2(CCN(C(=O)Oc3ccccc3)CC2)C1
- AC50 (Cytochrome P450 1A2): 25.1 µM (inconclusive)
- AC50 (Cytochrome P450 2D6): 20 µM (inconclusive)

Structure (SMILES): COCCNC(=O)CCn1c(=O)oc2ccccc21
- AC50 (Cytochrome P450 2C19; read-out: AC50): 1.41 µM (inconclusive)

Structure (SMILES): O=C(O)CS(=O)(=O)C(c1ccccc1)c1ccccc1
- AC50 (Cytochrome P450 2C19): inconclusive

Structure (SMILES): Cc1ccc2occ(/C=C/C(=O)O)c(=O)c2c1
- AC50 (Cytochrome P450 2C19; read-out: AC50): 28.2 µM (inconclusive)
- AC50 (Cytochrome P450 3A4): 22.4 µM (inconclusive)
- AC50 (Cytochrome P450 2C9): 25.1 µM (inconclusive)
- AC50 (Cytochrome P450 2D6): 15.8 µM (inconclusive)
